# Laboratory results: ChEMBL document CHEMBL4321867, “Optimization of LpxC Inhibitor Lead Compounds Focusing on Efficacy and Formulation for High Dose Intravenous Administration” (J Med Chem, 2020)
# Legend:
# in vivo [1] = details: mouse, sc, 150 mg/kg
# in vivo [2] = details: Wistar, rat, iv, 10 mg/kg
# physchem [3] = details: n-octanol/phosphate buffer, pH 7.4
# physchem [4] = details: buffer, pH 4
# physchem [5] = details: buffer, pH 7
# physchem [6] = details: buffer, pH 9
# in vitro [7] = details: rat, hepatocytes
# in vitro [8] = details: rat, liver microsomes
# in vitro [9] = details: human, hepatocytes
# in vitro [10] = details: human, liver microsomes
# in vitro [11] = details: rat, plasma
# physchem [12] = details: 5% mannitol/water, pH 8.2
# Escherichia coli [13] = experiment: microbe, parasite or virus in culture; details: ATCC 25922
# Klebsiella pneumoniae [14] = experiment: microbe, parasite or virus in culture; details: T6474
# Pseudomonas aeruginosa [15] = experiment: microbe, parasite or virus in culture; details: ATCC 27853
# Citrobacter freundii = experiment: microbe, parasite or virus in culture
# Klebsiella aerogenes = experiment: microbe, parasite or virus in culture
# Enterobacter cloacae = experiment: microbe, parasite or virus in culture
# Escherichia coli [16] = experiment: microbe, parasite or virus in culture
# Klebsiella oxytoca = experiment: microbe, parasite or virus in culture
# Klebsiella pneumoniae [17] = experiment: microbe, parasite or virus in culture
# Morganella morganii = experiment: microbe, parasite or virus in culture
# Proteus mirabilis = experiment: microbe, parasite or virus in culture
# Serratia marcescens = experiment: microbe, parasite or virus in culture
# Acinetobacter baumannii = experiment: microbe, parasite or virus in culture
# Burkholderia cepacia = experiment: microbe, parasite or virus in culture
# Haemophilus influenzae = experiment: microbe, parasite or virus in culture
# Moraxella catarrhalis = experiment: microbe, parasite or virus in culture
# Pseudomonas aeruginosa [18] = experiment: microbe, parasite or virus in culture
# [19] = test system: Stenotrophomonas maltophilia; experiment: microbe, parasite or virus in culture
smiles,measurement,setting,value
C[C@@](CCN1Cc2cc(C#CC#C[C@H]3C[C@@H]3[C@@H](O)CO)cn2C1=O)(C(=O)NO)S(C)(=O)=O,AUC(0-t) at 24 h,in vivo [1],347 µg·h/mL
same,clearance at 24 h,in vivo [2],3.1 mL/min/kg
same,logD,physchem [3],0.5
same,solubility at 24 h,physchem [4],> 780 µg/mL
same,solubility at 24 h,physchem [5],> 780 µg/mL
same,solubility at 24 h,physchem [6],> 780 µg/mL
same,hepatocyte CLint at 1 µM,in vitro [7],10.2 µL/min/1e6 cells
same,microsomal CLint at 1 µM,in vitro [8],< 10 µL/min/mg
same,hepatocyte CLint at 1 µM,in vitro [9],< 2 µL/min/1e6 cells
same,microsomal CLint at 1 µM,in vitro [10],< 10 µL/min/mg
same,fraction unbound at 1 µM,in vitro [11],0.018
same,solubility,physchem [12],25000 µg/mL
same,MIC,Escherichia coli [13],0.5 µg/mL
same,MIC,Klebsiella pneumoniae [14],1 µg/mL
same,MIC,Pseudomonas aeruginosa [15],1 µg/mL
same,MIC90,Citrobacter freundii,1 µg/mL
same,MIC90,Klebsiella aerogenes,2 µg/mL
same,MIC90,Enterobacter cloacae,4 µg/mL
same,MIC90,Escherichia coli [16],2 µg/mL
same,MIC90,Klebsiella oxytoca,4 µg/mL
same,MIC90,Klebsiella pneumoniae [17],4 µg/mL
same,MIC90,Morganella morganii,1 µg/mL
same,MIC90,Proteus mirabilis,1 µg/mL
same,MIC90,Serratia marcescens,0.5 µg/mL
same,MIC90,Acinetobacter baumannii,> 16 µg/mL
same,MIC90,Burkholderia cepacia,8 µg/mL
same,MIC90,Haemophilus influenzae,≤ 0.03 µg/mL
same,MIC90,Moraxella catarrhalis,> 16 µg/mL
same,MIC90,Pseudomonas aeruginosa [18],2 µg/mL
same,MIC90,[19],> 16 µg/mL
